Results from patent US12616672B2, “Methods for assessing risk of cardiovascular disease and methods and compounds for use in treating or preventing cardiovascular disease” (Queen Mary University of London, priority 2017, dated 2026).
Where “and” joins values, the source holds several entries; their conditions need not be identical. Identical values can stand only once.

Tests used:
[1] = test system: peripheral blood from healthy volunteers; assay: Human whole blood incubations (ACh, norepinephrine, cortisol), then lipid mediator profiling of plasma; format: cell-based; conditions: for production of n-3 DPA derived mediators in peripheral blood: norepinephrine 0.1-10 μM, cortisol 1-10 μM, healthy volunteers
Procedure: Plasma was obtained from peripheral blood of healthy volunteers and patients following centrifugation at 1500×g for 10 min at room temperature. Descending aortas were weighed, placed in ice-cold methanol and homogenized using a glass dounce.
All samples for LC-MS-MS-based profiling were extracted using solid-phase extraction columns as described in Dalli et al. 2013 and Rathod et al. 2017, the contents of which are incorporated herein by reference.
Prior to sample extraction, deuterated internal standards, representing each region in the chromatographic analysis (500 pg each) were added to facilitate quantification in 4V of cold methanol.
Samples were kept at −20° C. for a minimum of 45 min to allow protein precipitation.
Supernatants were subjected to solid phase extraction, methyl formate fraction collected, brought to dryness and suspended in phase (methanol/water, 1:1, vol/vol) for injection on a Shimadzu LC-20AD HPLC and a Shimadzu SIL-20AC autoinjector, paired with a triple quadrupole mass spectrometer with or without a linear ion trap.
An Agilent Poroshell 120 EC-C18 column (100 mm×4.6 mm×2.7 μm) was kept at 50° C. and mediators eluted using a mobile phase consisting of methanol-water-acetic acid of 20:80:0.01 (vol/vol/vol) that was ramped to 50:50:0.01 (vol/vol/vol) over 0.5 min and then to 80:20:0.01 (vol/vol/vol) from 2 min to 11 min, maintained till 14.5 min and then rapidly ramped to 98:2:0.01 (vol/vol/vol) for the next 0.1 min. This was subsequently maintained at 98:2:0.01 (vol/vol/vol) for 5.4 min, and the flow rate was maintained at 0.5 ml/min. Mass spectrometer was operated using a multiple reaction monitoring method as in Walker M E et al. 13-Series resolvins mediate the leukocyte-platelet actions of atorvastatin and pravastatin in inflammatory arthritis. FASEB J. 2017 August; 31(8):3636-3648, the contents of which are incorporated herein by reference.
Each LM was identified using established criteria including matching retention time to synthetic and authentic materials and at least six diagnostic ions (Walker M E et al. 2017. ibid.)
Calibration curves were obtained for each using synthetic compound mixtures at 0.78, 1.56, 3.12, 6.25, 12.5, 25, 50, 100, and 200 pg that gave linear calibration curves with an r^2 values of 0.98-0.99. […]

[2] = test system: peripheral blood leukocytes and platelets from CVD patients; assay: CVD patient whole blood incubated with RvD2n-3 DPA or RvD5n-3 DPA for 45 min, flow cytometry; format: cell-based, human; conditions: 45 min, no PAF
Procedure: FIG. 8: RvD2n-3 DPA and RvD5n-3 DPA reduce leukocyte activation in peripheral blood from CVD patients. Peripheral blood from patients diagnosed with cardiovascular disease (CVD) was collected at 9:00 h. […] Expression of CD62P on (A) neutrophils (B) monocytes and CD11b on (C) neutrophils and (D) monocytes was investigated using flow cytometry and fluorescently labelled antibodies.
(§1) Whole blood was incubated with lineage-specific markers for 45 min (4° C., in DPBS containing 0.02% BSA). The following anti-human antibodies were used: VioBlue-anti-CD41, PE-Cy5-anti-CD62P, Brilliant Violet 711-anti-CD11b, APC-Cy7-anti-CD16, Alexa Fluor 647-anti-CD14. After staining, red blood cells were lysed using Whole Blood Lysing Reagent Kit, according to the manufacturer's instructions. Data was collected using a flow cytometer and analysis was conducted using appropriate software.
In select experiments platelet adhesion molecule expression was assessed. Here platelets were incubated with fluorescently labelled mouse anti-human VioBlue-anti-CD41, PE-Cy5-anti-CD62P, PerCP/Cy5.5-anti-CD63 and FITC-ant-CD42b for 30 min at 4° C. Cells were then washed and fluorescence, staining evaluated using LSRFortessa cell analyser (BD Biosciences) and analysed using FlowJo software (Tree Star Inc., V10).

[3] = test system: healthy volunteer peripheral blood neutrophils, monocytes and platelets; assay: Healthy volunteer whole blood incubated with RvDn-3 DPA then PAF, flow cytometry of activation markers; format: cell-based, human; conditions: vs PAF alone
Procedure: Blood was collected from healthy volunteers and incubated with RvD2n-3 DPA, RvD5n-3 DPA (0.1 nM, 1 nM or 10 nM) or vehicle (PBS) for 15 min (37° C.) then with PAF (100 ng/ml; 30 min; 37° C.). Cell activation and leukocyte-platelet aggregates were assessed using flow cytometry. (A,B) Representative histograms depicting neutrophil (A) CD11b and (B) CD62P expression. (C,D) Cumulative neutrophil ([…]) CD11b and (D) CD62P expression. (E,F) Monocyte (E) CD11b and (F) CD62P expression. Results are mean of n=5 per time point and expressed as percentage change from PAF incubated cells. *p<0.05 compared to PAF using one-sample t test, followed by Sidak correction of p values.
Blood was collected from healthy volunteers and incubated with RvD2n-3 DPA, RvD5n-3 DPA (0.1 nM, 1 nM or 10 nM) or vehicle (PBS) for 15 min (37° C.) then with PAF (100 ng/ml; 30 min; 37° C.). Cell activation and leukocyte-platelet aggregates were assessed using flow cytometry. (A,B) Images depicting platelet monocyte (A) and (B) platelet-neutrophil aggregates. Results are representative of n=3 distinct experiments. (C,D) Cumulative neutrophil (C) CD11b and (D) CD62P expression. (E,F) Monocyte (E) CD11b and (F) CD62P expression. Results are mean of n=5 per condition and expressed as percentage change from PAF incubated cells. *p<0.05 compared to PAF using Wilcoxon Signed Rank Test. (G) Platelet rich plasma was incubated with vehicle (PBS) or RvD5n-3 DPA 0.1-10 nM (15 min; 37° C.) and PAF (100 nM; 30 min; 37° C.). Adhesion molecule expression evaluated using flow cytometry. Results are mean±s.e.m. n=5 healthy volunteers. * p, 0.05 compared to Vehicle group using Friedman's test followed by Dunn's multiple comparisons test.
(§2) After stimulation, samples were washed twice with PBS for 12 min at 800×g. Samples were stained for flow cytometry as described below.
as §1

[4] = test system: peripheral blood leukocytes and platelets from CVD patients; assay: CVD patient whole blood incubated with RvD2n-3 DPA or RvD5n-3 DPA then PAF, flow cytometry; format: cell-based, human
[5] = test system: peripheral blood leukocytes and platelets from CVD patients; assay: as above; format: cell-based, human; conditions: 15 min then PAF 30 min
Procedure: (§3) Whole blood was incubated with RvD2n-3 DPA or RvD5n-3 DPA (0.1 nM, 1 nM or 10 nM) or vehicle (PBS containing 0.01% EtOH) for 15 min then with PAF (100 ng/ml) for 30 min (37° C.). Expression of CD62P on (A) neutrophils (B) monocytes and CD11b on (C) neutrophils and (D) monocytes was investigated using flow cytometry and fluorescently labelled antibodies. Results are mean±s.em. and expressed as percentage of PAF incubated cells. n=9 patients per interval. * p<0.05 vs Veh group using one-sample t test, followed by Sidak correction of p values.
as §3, with “labeled” for “labelled”, “group.” for “interval.”, “PAF” for “Veh”, “Wilcoxon Signed Rank Test.” for “one-sample t test, followed by Sidak correction of p values.”
as §2, §1

[6] = test system: peripheral blood from CVD patients; conditions: ADA 1U, 37° C., 20 min, then perfused 0.3 Pa
Procedure: (B) Peripheral blood from CVD patients was incubated with ADA (1U; 37° C.; 20 min) then perfused (0.3 Pa, 20 min, 37° C.). Plasma was collected and RvDn-3 DPA concentrations determined using LC/MS-MS based lipid mediator profiling. Results are mean±s.e.m. n=6 donors. *p<0.05, using paired Mann-Whitney test.
Using an automated syringe pump (Harvard Apparatus) connected to small-diameter tubing (1.6 mm inner diameter) and chamber slides (15μ-Slide VI^0.4, Ibidi), whole blood was perfused at a sheer rate of 0.1 dyne/cm^2 (low sheer rate) and at 0.3 dyne/cm^2 (high sheer rate) for 15 min. In selected experiment, blood was incubated with 10 nM Ach or 1 u of ADA for 20 min prior perfusing.

[7] = whole blood with ACh 0.1 μM, 45 min, 37° C., n = 9
[8] = whole blood with ACh 0.1 μM, 45 min, n = 9
[9] = whole blood with Cortisol 1 μM, 45 min, n = 5
[10] = whole blood with Cortisol 10 μM, 45 min, n = 5
[11] = CVD patient whole blood, 0.1, 1, 10 nM
[12] = 0.1, 1, 10 nM, 15 min then PAF 30 min

Compound: CC(=O)OCC[N+](C)(C)C [ACh, acetylcholine]
- increase in RvD2n-3 DPA compared with blood incubated with vehicle alone ([1]; whole blood incubated with ACh): ~160%
- 7-HDPA concentration [1, 7]: 44.9 pg/mL and 44.9 ± 10.7 pg/mL
- 13-HDPA concentration [1, 7]: 1.9 pg/mL and 1.9 ± 0.6 pg/mL
- 14-HDPA concentration [1, 7]: 137.2 pg/mL and 137.2 ± 25.8 pg/mL
- 17-HDPA concentration [1, 7]: 58.9 pg/mL and 58.9 ± 13.2 pg/mL
- DPA concentration [1, 7]: 3873.1 pg/mL and 3873.1 ± 706.3 pg/mL
- MaR1n-3 DPA concentration [1, 7]: 0.9 pg/mL
- PD1n-3 DPA concentration [1, 7]: 0.5 pg/mL
- RvD1n-3 DPA concentration [1, 7]: 4.9 pg/mL
- RvD2n-3 DPA concentration [1, 7]: 7.4 pg/mL
- RvD5n-3 DPA concentration [1, 7]: 1.5 pg/mL
- RvT1 concentration [1, 7]: 2.0 pg/mL
- RvT2 concentration [1, 7]: 1.6 pg/mL
- RvT3 concentration [1, 7]: 1.4 pg/mL
- RvT4 concentration [1, 7]: 1.0 pg/mL
- 4HDHA concentration [1, 8]: 19.9 ± 5.1 pg/mL
- 5HEPE concentration [1, 8]: 42.7 ± 11.3 pg/mL
- 5HETE concentration [1, 8]: 69.9 ± 13.5 pg/mL
- 7HDHA concentration [1, 8]: 8.6 ± 3.7 pg/mL
- 12HEPE concentration [1, 8]: 402.4 ± 106.0 pg/mL
- 12HETE concentration [1, 8]: 5148.0 ± 1153.2 pg/mL
- 14HDHA concentration [1, 8]: 229.2 ± 41.2 pg/mL
- 15HEPE concentration [1, 8]: 31.3 ± 8.7 pg/mL
- 15HETE concentration [1, 8]: 336.4 ± 95.2 pg/mL
- 17HDHA concentration [1, 8]: 103.6 ± 25.9 pg/mL
- 18HEPE concentration [1, 8]: 36.2 ± 12.2 pg/mL
- AA concentration [1, 8]: 24205.0 ± 4783.4 pg/mL
- DHA concentration [1, 8]: 28104.0 ± 10103.4 pg/mL
- EPA concentration [1, 8]: 5867.2 ± 713.2 pg/mL

Compound: C[C@]12CCC(=O)C=C1CC[C@@H]1[C@@H]2[C@@H](O)C[C@@]2(C)[C@H]1CC[C@]2(O)C(=O)CO [Cortisol, cortisol]
- production of n-3 DPA derived mediators in peripheral blood [1]: did not significantly augment
- 7-HDPA concentration [1, 9]: 268.9 ± 83.5 pg/mL
- 13-HDPA concentration [1, 9]: 3.2 ± 0.7 pg/mL
- 14-HDPA concentration [1, 9]: 286.2 ± 91.0 pg/mL
- 17-HDPA concentration [1, 9]: 74.9 ± 18.2 pg/mL
- DPA concentration [1, 9]: 24568.2 ± 6300.4 pg/mL
- MaR1n-3 DPA concentration [1, 9]: 0.3 ± 0.2 pg/mL
- PD1n-3 DPA concentration [1, 9]: 1.5 ± 1.1 pg/mL
- RvD1n-3 DPA concentration [1, 9]: 1.9 ± 1.2 pg/mL
- RvD2n-3 DPA concentration [1, 9]: 1.0 ± 0.9 pg/mL
- RvD5n-3 DPA concentration [1, 9]: 1.1 ± 0.6 pg/mL
- RvT1 concentration [1, 9]: 0.5 ± 0.2 pg/mL
- RvT2 concentration [1, 9]: 0.1 ± 0.1 pg/mL
- RvT3 concentration [1, 9]: 1.6 ± 0.5 pg/mL
- RvT4 concentration [1, 9]: 2.7 ± 1.5 pg/mL
- 7-HDPA concentration [1, 10]: 257.8 ± 109.6 pg/mL
- 13-HDPA concentration [1, 10]: 3.0 ± 0.6 pg/mL
- 14-HDPA concentration [1, 10]: 241.0 ± 40.9 pg/mL
- 17-HDPA concentration [1, 10]: 71.5 ± 17.5 pg/mL
- DPA concentration [1, 10]: 28823.5 ± 8019.0 pg/mL
- MaR1n-3 DPA concentration [1, 10]: 0.2 ± 0.2 pg/mL
- PD1n-3 DPA concentration [1, 10]: 2.5 ± 1.5 pg/mL
- RvD1n-3 DPA concentration [1, 10]: 1.7 ± 1.5 pg/mL
- RvD2n-3 DPA concentration [1, 10]: 1.2 ± 0.8 pg/mL
- RvD5n-3 DPA concentration [1, 10]: 1.7 ± 0.3 pg/mL
- RvT1 concentration [1, 10]: 0.6 ± 0.2 pg/mL
- RvT2 concentration [1, 10]: 0.1 ± 0.0 pg/mL
- RvT3 concentration [1, 10]: 2.2 ± 1.5 pg/mL
- RvT4 concentration [1, 10]: 3.0 ± 1.8 pg/mL

Compound: CC/C=C\CC(O)C(O)/C=C/C=C/C=C\C=C\C(O)CCCCCC(=O)O (stereo not drawn) [RvD2n-3 DPA, 7,16,17-trihydroxy-8,10,12,14E,19Z-docosapentaenoic acid]
- monocyte CD11b expression [2, 11]: without significantly regulating
- neutrophil CD11b expression [2, 11]: without significantly regulating
- platelet-monocyte aggregates [2, 11]: dose-dependently decreased
- platelet-neutrophil aggregates [2, 11]: dose-dependently decreased
- platelet CD62P expression ([2]; CVD patient whole blood): downregulated
- platelet CD63 expression ([2]; CVD patient whole blood): downregulated
- monocyte expression of CD11b [3, 12]: dose dependent decreases
- monocyte expression of platelet marker CD62P [3, 12]: dose dependent decreases
- neutrophil CD11b expression [3, 12]: dose dependent decreases
- neutrophil-platelet aggregates measured as neutrophil CD62P expression [3, 12]: dose dependent decreases
- decrease in monocyte CD41 expression ([3]; at 10 nM, n=5 donors): ~29%
- decrease in neutrophil CD41 expression ([3]; at 10 nM, n=5 donors): ~20%
- expression of CD62P on peripheral blood platelets [4]: dose-dependently regulated
- expression of CD63 on peripheral blood platelets [4]: dose-dependently regulated
- expression of CD11b on monocytes [5]: only in part shared
- expression of CD11b on neutrophils [5]: only in part shared
- platelet-monocyte aggregates measured as CD62P and CD41 expression [5]: decreases
- platelet-neutrophil aggregates measured as CD62P and CD41 expression [5]: decreases

Compound: NC[C@H](O)c1ccc(O)c(O)c1 [norepinephrine]
- production of n-3 DPA derived mediators in peripheral blood [1]: did not significantly augment

Compound: adenosine deaminase [ADA]
- concentrations of RvDn-3 DPA in CVD patient blood [6]: increase
